Measurements taken from patent publication US7230033B2, “Pest control compositions and methods for their use” (United States of America as represented by the Secretary of …, priority 2000, dated 2007).

Legend:
Ae. aegypti adults = assay: Adult mosquito bottle bioassay; type: in vivo, Aedes aegypti; conditions: for Slope: 24 h exposure, probit
Procedure: (§1) Adult mosquitoes were tested using the bottle bioassay method of Brogden and McAllister (J. Am. Mosq. Control Assoc., 14:159–64, 1998) with minor modifications. Natural product extracts were two-fold serially diluted for a total of 8 concentrations ranging from 0.002% to 0.25% in 1.5 ml of acetone. Individual dilutions were added to 250 ml Wheaton glass bottles and capped. Bottles were manipulated to evenly coat all inner surfaces. The caps were removed and bottles were allowed to air-dry overnight. Once bottles were completely dry, 10–50 (in some tests 25–50) adult mosquitoes were aspirated into the bottles. Mosquitoes were held in the bottles for 24 h at 23° C. and 85% RH. Morbidity and mortality were recorded at 15, 30, 45, and 60 min and 24 hour intervals. One bottle for each replicate was treated with acetone only and served as a control. The dose-mortality data was evaluated with probit analysis, using the LdP Line software, to determine LC50 and LC90 values.
Carvacrol was combined with compound 7, 9, or 10 at a 1:1 ratio (7.5 μl of carvacrol:7.5 μl of compound 7, 9, or 10 was added to 2,985 μl of acetone for a 0.5% solution, from which serial dilutions were made), and tested as previously described against nymphal ticks and adult and larval mosquitoes.

[1] = system: fourth-instar Aedes aegypti larvae; assay: Larval mosquito bioassay; type: in vivo; conditions: Aedes aegypti larval mosquitoes, concentration of the 1 ml added to 150 ml water
Procedure: Individual groups of 10 fourth-instar Aedes aegypti larvae were contained in 150 ml of water and exposed to […] of essential oils prepared by 2-fold serial dilutions ranging from 0.06%–5.0% in 1 ml of acetone. A control group of larvae were exposed to 1 ml of acetone only.
It is important to note that larval mosquitoes are tested in their natural environment, i.e., in water. The particular assays used herein involved groups of 10 larval mosquitoes in 150 ml of water. The weight percentages reported for lethal concentration for larval mosquitoes are the weight percentages added to the 150 ml water (as opposed to the final percentage of the tested compound(s) in the 150 ml water). As one of skill in the art will appreciate, test compound(s) added to a volume of water (such as, 150 ml) can be dramatically diluted depending upon the water solubility of the tested compound. […] If the tested compound is an oil (such as, carvacrol, nootkatone, or 13-hydroxy-valencene), it most likely floats on the surface of the water.

I. scapularis nymphs = assay: Tick bioassay, treated 2-dram vials, probit analysis; type: in vivo, Ixodes scapularis; conditions: for Slope: 24 h exposure, probit
Excerpt: A control treated with acetone only was run with each series.
For each time point, if ticks and fleas were incapable of movement, maintaining normal posture, leg coordination, ability to right themselves, or any signs of life, they were considered moribund or dead.

[2] = system: Ixodes scapularis nymphal ticks; assay: Tick repellency bioassay; type: in vivo
Excerpt: One-hundred (100) μl of test compound was pipetted onto a cotton-tipped applicator mounted to the bottom center of a 1 dram glass shell vial using non-toxic modeling clay. A total of 8 concentrations were screened with doses ranging from 0.04–5.0%. Applicators treated with acetone only served as controls. A line was drawn around the perimeter of the vial immediate to the base of the treated cotton portion of the applicator. The area above the line was designated the “repellent zone”. The vial was allowed to air-dry 1 h before a single tick was introduced. Vials were covered with a single piece of mesh and fitted with a hollowed-out plastic cap to cover the opening of the vial; this prevented the tick from escaping but allowed for air exchange. Vials were breathed upon by investigators at 1 min intervals and a hand was placed over the test vials to provide stimuli for ticks to pass into the repellent zone. […] If the tick crossed over and remained in the “repellent zone” for ≧5 sec, the tick was deemed non-repelled by the test compound. Each test was replicated 10 times using a new tick for each test. Repellent activity was determined at 1, 2, 3, and 4 h after treatment. Probit analysis was used to determine repellent efficacy (RD50 and RD95).

X. cheopis adults = assay: Flea bioassay, treated 2-dram vials, probit analysis; type: in vivo, Xenopsylla cheopis; conditions: 24 h exposure; probit
Procedure: Med. […] A control treated with acetone only was run with each series. Tick and flea susceptibility was evaluated using a modification of the disposable pipette method of Barnard et al. (J. Econ. Entomol., 74:466-69, 1981) and Maupin and […]. Med. […] The inner surface of 2-dram friction cap vials were treated with the compound/acetone solution, or acetone only as a control, and left to air-dry overnight (see also, […] et al., J. Med. […] Three to 4 holes were made in the plastic cap to allow for air exchange. Nymphal ticks and adult fleas were then placed directly into the vials using forceps. […] For each time point, if ticks and fleas were incapable of movement, maintaining normal posture, leg coordination, ability to right themselves, or any signs of life, they were considered moribund or dead.

[3] = system: Xenopsylla cheopis adults; assay: Residual activity, aged treated vials, fleas; type: in vivo
Procedure: (§2) Briefly, groups of 10 nymphal I. scapularis and X. cheopis fleas were used in all tests (more than a total of 5,240 nymphs and 4,860 fleas were exposed to the compounds). The inner surface of 2-dram friction cap vials were treated with the compound/acetone solution, or acetone only as a control, and left to air-dry overnight (see also, Panella et al., J. Med. Entomol., 42(3):352-358, 2005. Three to 4 holes were made in the plastic cap to allow for air exchange. Nymphal ticks and adult fleas were then placed directly into the vials using forceps. Vials containing ticks or fleas were placed in desiccators for 24 h at 21° C. and 90% RH. Morbidity and mortality was recorded at 1, 2, 4, 8, and 24 h after initial exposure.

[4] = system: ticks, fleas, and mosquitoes; assay: Residual activity, general statements (Examples 9, 17); type: in vivo; conditions: ticks
Ixodes scapularis nymphs = assay: Residual activity, aged treated vials, ticks; type: in vivo; conditions: for LC90, residual activity: NE = not effective
Procedure: as §2

Aedes aegypti adults = assay: Residual activity, aged treated bottles, mosquitoes; type: in vivo
Procedure: as §1

[5] = Aedes aegypti adult mosquitoes, alone, or 1:1 with carvacrol (in parenthesis)
[6] = Ixodes scapularis nymphal ticks, alone, or 1:1 with carvacrol (in parenthesis)
[7] = 1 h after compound applied to applicator
[8] = 4 h after compound applied to applicator
[9] = 2 weeks after treatment, NE = not effective

Row | Structure (SMILES) | Slope (Ae. aegypti adults) | Slope (I. scapularis nymphs) | Slope (±SEM) ([2]; 1 h) | RD50 [2, 7] | RD95 [2, 7] | Slope (±SEM) ([2]; 4 h) | RD50 [2, 8] | RD95 [2, 8] | Slope (X. cheopis adults) | Slope, residual activity ([3]; 1 week after treatment) | residual activity [4] | Slope, residual activity (Ixodes scapularis nymphs; 1 week after treatment) | LC90, residual activity (Ixodes scapularis nymphs; 1 week after treatment) | LC90, residual activity (Aedes aegypti adults; 1 week after treatment) | Slope, residual activity (Aedes aegypti adults; 1 week after treatment) | Slope, residual activity (Aedes aegypti adults; 2 weeks after treatment) | LC90, residual activity (Aedes aegypti adults; [9]) | further results
1 | C=C(CO)C1CCC2=CCC[C@@H](C)[C@]2(C)C1 (some centres unmarked) [Compound 10, 13-hydroxy-valencene] | 2.094 | 2.562 | 1.332 (±0.313) | 0.095 % (wt:vol) | 1.637 % (wt:vol) | 1.066 (±0.307) | 0.114 % (wt:vol) | 3.993 % (wt:vol) | 3.143 | 2.218 | considerable biological activity through the four week time period | 3.005 | 0.019 percent concentration, wt:vol | 0.058 percent concentration, wt:vol | 3.286 | 6.932 | 0.021 percent concentration, wt:vol | LC50 (15 min) (Ae. aegypti adults; [5]): 0.077 % (wt:vol); LC50 (24 h) (Ae. aegypti adults; [5]): 0.0034 % (wt:vol); LC90 (15 min) (Ae. aegypti adults; [5]): 0.373 % (wt:vol); LC90 (24 h) (Ae. aegypti adults; [5]): 0.014 % (wt:vol); LC50 (1 h) [1]: 5.132 % (wt:vol); LC50 (24 h) [1]: 0.975 % (wt:vol); LC90 (1 hr) [1]: 13.425 % (wt:vol); LC90 (24 h) [1]: 1.23 % (wt:vol); LC50 (24 h) ([1]; listed as 13-hydroxy-valencene): 1.23 % (wt:vol); LC50 (1 h) (I. scapularis nymphs; [6]): 0.017 % (wt:vol); LC50 (24 h) (I. scapularis nymphs; [6]): 0.0054 % (wt:vol); LC90 (1 hr) (I. scapularis nymphs; [6]): 0.065 % (wt:vol); LC90 (24 h) (I. scapularis nymphs; [6]): 0.014 % (wt:vol); Slope, residual activity ([3]; 2 weeks after treatment): 2.442; Slope, residual activity (Ixodes scapularis nymphs; 2 weeks after treatment): 1.781; LC90, residual activity (Ixodes scapularis nymphs; 2 weeks after treatment): 0.044 percent concentration, wt:vol; Slope, residual activity (Ixodes scapularis nymphs; 4 weeks after treatment): 1.285; Slope, residual activity (Aedes aegypti adults; 4 weeks after treatment): 2.645; LC90, residual activity (Aedes aegypti adults; 4 weeks after treatment, NE = not effective): 0.04 percent concentration, wt:vol
2 | CCN(CC)C(=O)c1cccc(C)c1 [Deet, N, N-diethyl-m-toluamide, reference compound] |  |  | 0.633 (±0.222) | 0.167 % (wt:vol) | 50.579 % (wt:vol) | 0.485 (±0.212) | 0.384 % (wt:vol) | 950.294 % (wt:vol) |  |  |  |  |  |  |  |  |  | 
3 | C[C@@H]1CC(=O)C2OC23CCC(C2(C)CO2)C[C@@]13C (some centres unmarked) [Compound 18, nootkatone-1,10–11,12-diepoxide] | 4.472 | 2.131 |  |  |  |  |  |  | 1.455 |  |  |  |  |  |  |  |  | 
4 | C=C(C=O)C1CCC2=CCC[C@@H](C)[C@]2(C)C1 (some centres unmarked) [Compound 15, valencene-13-aldehyde] | 8.714 | 2.755 |  |  |  |  |  |  | 5.366 | 3.211 | considerable biological activity through the four week time period | 2.859 | 0.072 percent concentration, wt:vol | 0.027 percent concentration, wt:vol | 3.392 | 3.136 | 0.037 percent concentration, wt:vol | 
